# Laboratory results taken from publication PMC5546590 (Biologics : Targets & Therapy, 2017).
# Legend:
# electric eel AChE = electric eel AChE (Electrophorus electricus, UniProt O42275); assay: biochemical
# [1] = target: horse butyxylcholinesterase (Equus caballus, UniProt P81908); assay: biochemical
# [2] = Solubility in water of isolated compounds
# Chain of horse butyxylcholinesterase (P81908 whole entry): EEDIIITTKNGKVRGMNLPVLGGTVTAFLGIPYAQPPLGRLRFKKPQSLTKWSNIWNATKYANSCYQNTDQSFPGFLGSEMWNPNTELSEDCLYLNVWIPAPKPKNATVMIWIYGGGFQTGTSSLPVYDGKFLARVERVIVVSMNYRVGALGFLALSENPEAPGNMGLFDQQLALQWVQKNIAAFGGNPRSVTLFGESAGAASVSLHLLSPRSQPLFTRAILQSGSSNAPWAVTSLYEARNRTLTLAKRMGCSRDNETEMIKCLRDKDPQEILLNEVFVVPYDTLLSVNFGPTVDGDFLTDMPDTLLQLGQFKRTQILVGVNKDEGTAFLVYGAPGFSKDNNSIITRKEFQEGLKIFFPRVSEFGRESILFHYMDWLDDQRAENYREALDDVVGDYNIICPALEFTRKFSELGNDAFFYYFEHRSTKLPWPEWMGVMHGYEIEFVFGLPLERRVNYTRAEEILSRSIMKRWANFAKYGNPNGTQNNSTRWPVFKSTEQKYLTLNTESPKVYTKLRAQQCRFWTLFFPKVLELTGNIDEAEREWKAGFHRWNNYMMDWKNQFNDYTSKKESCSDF
# Chain of electric eel AChE (O42275 24-633): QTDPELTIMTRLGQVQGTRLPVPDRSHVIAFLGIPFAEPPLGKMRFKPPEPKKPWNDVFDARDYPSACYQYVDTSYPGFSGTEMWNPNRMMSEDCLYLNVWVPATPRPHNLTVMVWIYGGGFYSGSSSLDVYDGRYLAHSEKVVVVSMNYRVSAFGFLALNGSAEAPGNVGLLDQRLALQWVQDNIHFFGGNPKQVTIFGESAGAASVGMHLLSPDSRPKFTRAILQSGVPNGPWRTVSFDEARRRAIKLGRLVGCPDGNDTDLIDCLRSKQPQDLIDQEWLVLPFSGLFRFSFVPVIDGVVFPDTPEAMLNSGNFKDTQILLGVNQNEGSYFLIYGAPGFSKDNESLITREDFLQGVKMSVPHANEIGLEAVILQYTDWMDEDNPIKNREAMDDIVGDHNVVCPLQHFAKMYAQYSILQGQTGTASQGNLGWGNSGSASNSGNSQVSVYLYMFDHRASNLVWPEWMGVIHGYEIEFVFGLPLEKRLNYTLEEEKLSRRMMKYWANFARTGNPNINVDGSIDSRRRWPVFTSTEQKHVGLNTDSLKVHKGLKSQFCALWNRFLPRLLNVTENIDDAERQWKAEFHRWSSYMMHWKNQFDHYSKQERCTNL
SMILES,IC50 (electric eel AChE),IC50 [1],Solubility in water [2]
"C=C(C)[C@@H]1CC[C@]2(CO)CC[C@]3(C)[C@H](CC[C@@H]4[C@@]5(C)CC[C@H](O)C(C)(C)[C@@H]5CC[C@]43C)[C@@H]12 [Compound 1, betulin]",1.99 µM,10.5 µM,
"CC(C)[C@H](C)CC[C@@H](C)[C@H]1CC[C@H]2[C@@H]3CC=C4C[C@@H](O)CC[C@]4(C)[C@H]3CC[C@]12C [Compound 2, campesterol]",4.72 µM,10.2 µM,Soluble
